Test results taken from ChEMBL document CHEMBL1201862, “PubChem BioAssay data set” (2004).
Calls of active or inactive are those of the source.

How the values were obtained:
[1] = target: Voltage-dependent T-type calcium channel subunit alpha-1H (Homo sapiens, UniProt O95180); type: functional;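 also: channel activity triggered by adding a high calcium stimulation buffer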
[2] = target: Cytochrome P450 2C9 (Homo sapiens, UniProt P11712)
[3] = target: T1, Cytochrome P450 1A2 (Homo sapiens, UniProt P05177);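 also: PubChem cytochrome P450 panel assay, CYP1A2 panel member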
T1 sequence (P05177 whole entry): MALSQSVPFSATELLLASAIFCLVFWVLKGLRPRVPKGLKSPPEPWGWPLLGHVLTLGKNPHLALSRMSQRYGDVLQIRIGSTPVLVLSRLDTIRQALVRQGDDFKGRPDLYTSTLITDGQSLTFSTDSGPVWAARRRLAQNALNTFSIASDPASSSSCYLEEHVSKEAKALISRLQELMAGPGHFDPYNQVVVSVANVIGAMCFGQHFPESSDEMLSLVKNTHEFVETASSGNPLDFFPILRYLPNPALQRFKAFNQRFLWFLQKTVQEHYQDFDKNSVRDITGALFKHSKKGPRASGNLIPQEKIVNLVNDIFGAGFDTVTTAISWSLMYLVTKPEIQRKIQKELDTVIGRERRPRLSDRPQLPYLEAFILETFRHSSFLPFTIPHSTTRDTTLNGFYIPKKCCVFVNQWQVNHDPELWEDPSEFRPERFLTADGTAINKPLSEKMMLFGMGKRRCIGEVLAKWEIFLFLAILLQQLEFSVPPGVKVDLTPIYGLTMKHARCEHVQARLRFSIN

[4] = target: T2, High affinity choline transporter 1 (Homo sapiens, UniProt Q9GZV3); test: human choline transporter blockers, potency – cell-based, 5-point CRC, membrane potential dye, dose response (AID 504840); type: functional
T2 sequence (Q9GZV3 whole entry): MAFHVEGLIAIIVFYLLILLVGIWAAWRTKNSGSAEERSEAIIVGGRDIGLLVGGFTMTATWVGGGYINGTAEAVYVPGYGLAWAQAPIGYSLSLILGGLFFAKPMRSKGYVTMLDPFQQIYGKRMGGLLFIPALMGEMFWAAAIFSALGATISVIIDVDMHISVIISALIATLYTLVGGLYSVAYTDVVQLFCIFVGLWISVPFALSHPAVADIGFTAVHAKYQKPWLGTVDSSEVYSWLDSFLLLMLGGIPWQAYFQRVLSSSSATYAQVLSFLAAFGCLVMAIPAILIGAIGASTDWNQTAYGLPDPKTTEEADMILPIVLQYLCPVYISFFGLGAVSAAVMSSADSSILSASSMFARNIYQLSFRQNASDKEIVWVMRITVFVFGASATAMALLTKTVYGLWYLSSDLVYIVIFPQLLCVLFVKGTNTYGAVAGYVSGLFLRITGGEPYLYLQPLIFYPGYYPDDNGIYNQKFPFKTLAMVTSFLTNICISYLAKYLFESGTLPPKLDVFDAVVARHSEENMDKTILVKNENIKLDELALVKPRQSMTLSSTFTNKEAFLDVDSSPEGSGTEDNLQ

[5] = target: G-protein coupled receptor 55 (Homo sapiens, UniProt Q9Y2T6); test: inhibition of LPI-stimulated GPR55 beta-arrestin translocation – imaging, U2OS, beta-arrestin-GFP, LPI agonist, primary screen (AID 2013); type: functional;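 also: antagonist potency measured as reduced agonist-driven arrestin aggregation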
[6] = system: HeLa; test: ATP-based viability loss in HeLa cells – cell-based, CellTiter-Glo luminescence, cherry-pick samples, cytotoxicity control for MITF activator project, dose response (AID 540259); type: functional; conditions: Homo sapiens
[7] = Luminescence Cell-Based Dose Retest to Confirm Inhibitors of Cancer Stem Cells. [Related pubchem assays (depositor defined):AID2717, AID2721]; type: functional; conditions: Homo sapiens
[8] = target: Cytochrome P450 3A4 (Homo sapiens, UniProt P08684);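 also: CYP3A4 tested as one member of a cytochrome P450 panel screen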
[9] = target: Cytochrome P450 2C19 (Homo sapiens, UniProt P33261); test: Cytochrome panel assay with activity outcomes. Panel member name: p450-cyp2c19 Compounds with AC50 equal or less than 10 uM are considered active; type: functional; conditions: read-out: AC50
[10] = Trypanosoma cruzi growth suppression in host cells – NIH3T3 host cells, beta-gal luminescence, confirmation (AID 2044); type: functional, cell-based;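 also: intracellular parasites grown in NIH/3T3 mouse fibroblasts as host cells; luminescent beta-galactosidase reporter signal from transgenic T. cruzi replicating inside host cells; inhibitors lower the luminescence signal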
[11] = NIH3T3 cell viability loss – ATP luminescence, mouse fibroblasts, counter-screen, dose response (AID 2010); type: functional, cell-based;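 also: cells exposed to compound for about 90 hours before reading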
[12] = target: T3, Protein RecA (Mycobacterium tuberculosis, UniProt P9WHJ3); test: Fluorescence Cell-Free Homogeneous Dose Retest to Identify Inhibitors of RecA-Intein Splicing Activity. [Related pubchem assays (depositor defined):AID2097, AID2223, AID489010, AID492950]; type: functional
T3 sequence (P9WHJ3 whole entry): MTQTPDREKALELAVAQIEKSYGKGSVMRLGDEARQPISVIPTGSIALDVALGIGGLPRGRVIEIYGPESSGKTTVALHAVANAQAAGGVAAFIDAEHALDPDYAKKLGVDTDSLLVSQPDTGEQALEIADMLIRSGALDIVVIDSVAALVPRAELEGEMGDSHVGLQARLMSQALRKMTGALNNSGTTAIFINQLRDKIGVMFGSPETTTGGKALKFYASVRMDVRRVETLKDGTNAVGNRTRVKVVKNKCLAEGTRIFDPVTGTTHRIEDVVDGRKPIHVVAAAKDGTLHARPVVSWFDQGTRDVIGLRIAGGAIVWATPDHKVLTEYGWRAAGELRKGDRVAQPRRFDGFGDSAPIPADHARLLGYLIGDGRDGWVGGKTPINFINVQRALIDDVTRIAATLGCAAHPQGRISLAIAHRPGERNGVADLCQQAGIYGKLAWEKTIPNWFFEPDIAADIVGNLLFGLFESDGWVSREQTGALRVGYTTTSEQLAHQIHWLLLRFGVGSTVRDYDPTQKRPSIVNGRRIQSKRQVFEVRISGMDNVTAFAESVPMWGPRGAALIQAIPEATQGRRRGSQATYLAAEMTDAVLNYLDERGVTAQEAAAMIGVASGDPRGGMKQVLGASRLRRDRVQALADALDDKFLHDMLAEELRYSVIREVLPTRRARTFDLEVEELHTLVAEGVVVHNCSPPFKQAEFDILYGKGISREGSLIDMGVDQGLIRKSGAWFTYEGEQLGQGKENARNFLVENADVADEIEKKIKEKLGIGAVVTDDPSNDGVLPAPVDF

[13] = target: T4, Replicative DNA helicase DnaB (Mycobacterium tuberculosis, UniProt P9WMR3); test: DnaB intein splicing inhibitors, dose response, biochemical, cell-free fluorescence (AID 449749); type: functional
T4 sequence (P9WMR3 whole entry): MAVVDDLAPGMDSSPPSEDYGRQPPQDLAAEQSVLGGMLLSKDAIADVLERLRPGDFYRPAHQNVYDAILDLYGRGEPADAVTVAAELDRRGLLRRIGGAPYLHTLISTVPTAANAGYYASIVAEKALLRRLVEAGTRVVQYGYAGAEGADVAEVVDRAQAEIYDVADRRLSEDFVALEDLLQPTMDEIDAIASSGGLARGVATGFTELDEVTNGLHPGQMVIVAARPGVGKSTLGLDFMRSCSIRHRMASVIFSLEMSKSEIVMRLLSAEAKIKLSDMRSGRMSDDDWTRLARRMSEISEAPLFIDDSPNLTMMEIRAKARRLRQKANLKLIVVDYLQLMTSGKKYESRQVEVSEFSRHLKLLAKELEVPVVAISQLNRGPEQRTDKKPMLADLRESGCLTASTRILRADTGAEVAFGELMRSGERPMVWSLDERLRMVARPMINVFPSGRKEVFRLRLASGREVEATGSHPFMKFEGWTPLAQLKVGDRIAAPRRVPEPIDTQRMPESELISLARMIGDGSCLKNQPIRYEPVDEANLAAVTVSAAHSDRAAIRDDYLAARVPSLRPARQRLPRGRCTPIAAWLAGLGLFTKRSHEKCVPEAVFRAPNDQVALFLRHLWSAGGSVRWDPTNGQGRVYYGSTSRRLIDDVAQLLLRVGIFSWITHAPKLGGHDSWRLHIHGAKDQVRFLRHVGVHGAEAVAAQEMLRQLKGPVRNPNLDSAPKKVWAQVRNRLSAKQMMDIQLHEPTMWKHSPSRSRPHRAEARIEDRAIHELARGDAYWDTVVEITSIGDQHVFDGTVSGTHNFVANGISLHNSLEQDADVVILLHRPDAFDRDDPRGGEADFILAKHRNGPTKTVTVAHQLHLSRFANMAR

[14] = fluconazole-exposed Candida albicans growth modulators – fluorescence, retest, confirmation (AID 2467); type: functional, cell-based
[15] = system: Streptococcus sp. 'group A'; test: Streptococcus pyogenes SK(-)GAS viability under kanamycin – luminescence, BacTiterGlo, confirmation, counter-screen for streptokinase expression inhibitor project, dose response (AID 1900); type: functional, organism-based
[16] = target: T5, Serine/threonine-protein phosphatase (Candida dubliniensis (strain CD36 / CBS 7987 / NCPF 3949 / NRRLY-17841) (Yeast), UniProt B9W6M3); test: blockers of CaCl2-induced CDRE-lacZ signaling – S. cerevisiae, luminescence, secondary, dose response (AID 2388); type: functional, cell-based;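 also: yeast reporter cells carrying a calcineurin-responsive lacZ construct stimulated with calcium chloride; luminescent beta-galactosidase reporter signal in whole cells rather than isolated phosphatase activity; potency for inhibition where a drop in reporter signal means calcineurin blockade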
T5 sequence (B9W6M3 whole entry): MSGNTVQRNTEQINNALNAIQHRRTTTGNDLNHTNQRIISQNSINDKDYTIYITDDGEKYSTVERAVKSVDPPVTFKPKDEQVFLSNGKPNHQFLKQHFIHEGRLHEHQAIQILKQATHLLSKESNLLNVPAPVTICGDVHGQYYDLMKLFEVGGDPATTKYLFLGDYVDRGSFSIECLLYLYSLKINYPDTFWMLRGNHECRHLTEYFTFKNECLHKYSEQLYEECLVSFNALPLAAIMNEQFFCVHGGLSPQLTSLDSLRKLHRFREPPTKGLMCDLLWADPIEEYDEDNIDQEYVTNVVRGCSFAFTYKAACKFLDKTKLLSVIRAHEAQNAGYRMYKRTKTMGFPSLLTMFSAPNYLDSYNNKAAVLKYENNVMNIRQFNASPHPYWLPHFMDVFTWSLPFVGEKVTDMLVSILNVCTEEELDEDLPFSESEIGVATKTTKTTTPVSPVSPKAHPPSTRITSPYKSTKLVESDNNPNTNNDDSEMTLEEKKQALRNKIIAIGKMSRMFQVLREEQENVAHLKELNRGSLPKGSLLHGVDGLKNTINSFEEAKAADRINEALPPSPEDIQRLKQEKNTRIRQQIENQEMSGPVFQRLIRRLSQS

[17] = NIH-3T3 fibroblast cytotoxicity, dose response, cytotoxicity control, cell-based, fluorescence, Alamar Blue, secondary assay (AID 2327); type: functional;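 also: NIH-3T3 mouse fibroblasts cultured with fluconazole at 8 µg/mL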
[18] = system: Streptococcus; test: GAS UMAA2166 growth inhibition – luminescence, BacTiterGlo, counter-screen for streptokinase expression inhibitor project, dose response (AID 1915); type: functional, organism-based;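 also: potency for reduction of bacterial viability or growth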
[19] = target: ATP-dependent molecular chaperone HSP82 (Candida albicans (strain WO-1) (Yeast), UniProt C4YTQ8); test: steroid-induced GRE reporter decrease in yeast – S. cerevisiae, luminescence, Hsp90 inhibitor project, dose response (AID 2400); type: functional, cell-based;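 also: beta-galactosidase luminescence from glucocorticoid response element reporter as proxy for Hsp90 function; inhibitor potency where signal loss means Hsp90 inhibition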
[20] = A cytotoxicity screen of small molecule inhibitors of the PhoP region in Salmonella typhi identified in the primary screen. [Related pubchem assays: 1850, 1864, 1985 ]; type: functional
[21] = target: Genome polyprotein (dengue virus type 2, UniProt P29990); test: flavivirus cap methylation enzyme inhibition – biochemical, confirmation dose response, primary screen (AID 588689); type: functional

Chain of Cytochrome P450 2C9 (P11712 whole entry): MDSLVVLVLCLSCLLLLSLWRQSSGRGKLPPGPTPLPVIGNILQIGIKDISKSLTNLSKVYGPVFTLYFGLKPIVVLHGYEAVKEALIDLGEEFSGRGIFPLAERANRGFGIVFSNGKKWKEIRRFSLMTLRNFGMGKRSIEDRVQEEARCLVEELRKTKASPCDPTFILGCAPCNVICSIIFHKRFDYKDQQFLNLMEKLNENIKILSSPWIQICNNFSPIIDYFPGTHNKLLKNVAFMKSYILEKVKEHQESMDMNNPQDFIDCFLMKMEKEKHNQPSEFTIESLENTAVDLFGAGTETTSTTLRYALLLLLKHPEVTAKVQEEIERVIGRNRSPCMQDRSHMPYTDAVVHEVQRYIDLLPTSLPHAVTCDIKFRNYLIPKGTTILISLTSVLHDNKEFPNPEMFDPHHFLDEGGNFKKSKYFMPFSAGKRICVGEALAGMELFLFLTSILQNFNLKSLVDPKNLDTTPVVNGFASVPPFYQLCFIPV
Chain of G-protein coupled receptor 55 (Q9Y2T6 whole entry): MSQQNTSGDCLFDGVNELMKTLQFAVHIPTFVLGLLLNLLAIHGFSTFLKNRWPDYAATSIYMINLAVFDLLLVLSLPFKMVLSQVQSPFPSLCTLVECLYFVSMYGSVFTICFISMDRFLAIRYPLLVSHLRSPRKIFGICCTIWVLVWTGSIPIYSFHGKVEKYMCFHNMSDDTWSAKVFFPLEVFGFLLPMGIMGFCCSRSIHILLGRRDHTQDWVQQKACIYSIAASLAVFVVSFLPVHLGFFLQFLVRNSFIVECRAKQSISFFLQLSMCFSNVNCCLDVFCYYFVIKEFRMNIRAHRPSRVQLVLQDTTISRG
Chain of Cytochrome P450 2C19 (P33261 whole entry): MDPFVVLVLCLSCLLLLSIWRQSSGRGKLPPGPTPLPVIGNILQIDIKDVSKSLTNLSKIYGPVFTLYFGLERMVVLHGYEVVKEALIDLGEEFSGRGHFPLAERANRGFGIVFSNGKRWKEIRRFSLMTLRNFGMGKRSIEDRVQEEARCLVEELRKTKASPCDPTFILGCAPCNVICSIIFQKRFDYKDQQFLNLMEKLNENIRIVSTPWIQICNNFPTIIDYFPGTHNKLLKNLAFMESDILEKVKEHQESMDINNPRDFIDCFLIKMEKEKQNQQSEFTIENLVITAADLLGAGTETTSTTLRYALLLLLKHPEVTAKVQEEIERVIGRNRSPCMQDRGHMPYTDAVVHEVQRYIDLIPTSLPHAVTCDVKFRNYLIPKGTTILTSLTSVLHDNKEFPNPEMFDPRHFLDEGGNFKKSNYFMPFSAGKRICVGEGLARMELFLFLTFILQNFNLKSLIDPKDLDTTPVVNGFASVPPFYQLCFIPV
Chain of Cytochrome P450 3A4 (P08684 whole entry): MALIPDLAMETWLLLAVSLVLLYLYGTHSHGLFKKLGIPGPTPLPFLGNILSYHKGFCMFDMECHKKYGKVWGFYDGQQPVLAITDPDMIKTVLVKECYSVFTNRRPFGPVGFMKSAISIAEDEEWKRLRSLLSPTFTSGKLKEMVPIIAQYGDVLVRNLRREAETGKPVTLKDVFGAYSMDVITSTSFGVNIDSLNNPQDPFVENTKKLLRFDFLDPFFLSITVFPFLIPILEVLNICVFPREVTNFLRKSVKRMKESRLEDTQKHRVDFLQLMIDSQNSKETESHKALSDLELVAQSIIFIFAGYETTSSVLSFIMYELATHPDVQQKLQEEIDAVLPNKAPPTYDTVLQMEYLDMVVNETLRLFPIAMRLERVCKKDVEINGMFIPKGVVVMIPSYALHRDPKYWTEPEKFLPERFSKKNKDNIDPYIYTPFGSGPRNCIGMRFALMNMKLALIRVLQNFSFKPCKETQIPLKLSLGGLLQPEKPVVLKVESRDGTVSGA
Chain of ATP-dependent molecular chaperone HSP82 (C4YTQ8 whole entry): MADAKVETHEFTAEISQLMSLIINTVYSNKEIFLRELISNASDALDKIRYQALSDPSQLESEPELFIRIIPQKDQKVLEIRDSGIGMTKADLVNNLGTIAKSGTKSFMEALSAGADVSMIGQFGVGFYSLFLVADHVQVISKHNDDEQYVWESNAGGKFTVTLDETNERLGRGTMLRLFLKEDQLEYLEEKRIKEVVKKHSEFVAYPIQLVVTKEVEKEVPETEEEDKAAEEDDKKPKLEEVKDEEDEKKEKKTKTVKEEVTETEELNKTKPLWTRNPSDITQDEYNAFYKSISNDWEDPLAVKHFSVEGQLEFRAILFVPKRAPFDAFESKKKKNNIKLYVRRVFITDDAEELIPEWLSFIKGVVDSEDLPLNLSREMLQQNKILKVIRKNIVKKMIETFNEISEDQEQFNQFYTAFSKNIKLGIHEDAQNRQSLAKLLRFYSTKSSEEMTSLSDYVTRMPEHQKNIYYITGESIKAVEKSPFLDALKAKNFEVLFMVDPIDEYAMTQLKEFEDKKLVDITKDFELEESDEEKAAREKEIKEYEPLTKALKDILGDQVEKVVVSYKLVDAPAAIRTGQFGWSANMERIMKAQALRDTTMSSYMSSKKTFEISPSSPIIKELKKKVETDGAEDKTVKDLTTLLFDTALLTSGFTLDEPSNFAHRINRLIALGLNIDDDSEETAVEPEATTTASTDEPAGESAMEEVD
Chain of Voltage-dependent T-type calcium channel subunit alpha-1H (O95180 whole entry): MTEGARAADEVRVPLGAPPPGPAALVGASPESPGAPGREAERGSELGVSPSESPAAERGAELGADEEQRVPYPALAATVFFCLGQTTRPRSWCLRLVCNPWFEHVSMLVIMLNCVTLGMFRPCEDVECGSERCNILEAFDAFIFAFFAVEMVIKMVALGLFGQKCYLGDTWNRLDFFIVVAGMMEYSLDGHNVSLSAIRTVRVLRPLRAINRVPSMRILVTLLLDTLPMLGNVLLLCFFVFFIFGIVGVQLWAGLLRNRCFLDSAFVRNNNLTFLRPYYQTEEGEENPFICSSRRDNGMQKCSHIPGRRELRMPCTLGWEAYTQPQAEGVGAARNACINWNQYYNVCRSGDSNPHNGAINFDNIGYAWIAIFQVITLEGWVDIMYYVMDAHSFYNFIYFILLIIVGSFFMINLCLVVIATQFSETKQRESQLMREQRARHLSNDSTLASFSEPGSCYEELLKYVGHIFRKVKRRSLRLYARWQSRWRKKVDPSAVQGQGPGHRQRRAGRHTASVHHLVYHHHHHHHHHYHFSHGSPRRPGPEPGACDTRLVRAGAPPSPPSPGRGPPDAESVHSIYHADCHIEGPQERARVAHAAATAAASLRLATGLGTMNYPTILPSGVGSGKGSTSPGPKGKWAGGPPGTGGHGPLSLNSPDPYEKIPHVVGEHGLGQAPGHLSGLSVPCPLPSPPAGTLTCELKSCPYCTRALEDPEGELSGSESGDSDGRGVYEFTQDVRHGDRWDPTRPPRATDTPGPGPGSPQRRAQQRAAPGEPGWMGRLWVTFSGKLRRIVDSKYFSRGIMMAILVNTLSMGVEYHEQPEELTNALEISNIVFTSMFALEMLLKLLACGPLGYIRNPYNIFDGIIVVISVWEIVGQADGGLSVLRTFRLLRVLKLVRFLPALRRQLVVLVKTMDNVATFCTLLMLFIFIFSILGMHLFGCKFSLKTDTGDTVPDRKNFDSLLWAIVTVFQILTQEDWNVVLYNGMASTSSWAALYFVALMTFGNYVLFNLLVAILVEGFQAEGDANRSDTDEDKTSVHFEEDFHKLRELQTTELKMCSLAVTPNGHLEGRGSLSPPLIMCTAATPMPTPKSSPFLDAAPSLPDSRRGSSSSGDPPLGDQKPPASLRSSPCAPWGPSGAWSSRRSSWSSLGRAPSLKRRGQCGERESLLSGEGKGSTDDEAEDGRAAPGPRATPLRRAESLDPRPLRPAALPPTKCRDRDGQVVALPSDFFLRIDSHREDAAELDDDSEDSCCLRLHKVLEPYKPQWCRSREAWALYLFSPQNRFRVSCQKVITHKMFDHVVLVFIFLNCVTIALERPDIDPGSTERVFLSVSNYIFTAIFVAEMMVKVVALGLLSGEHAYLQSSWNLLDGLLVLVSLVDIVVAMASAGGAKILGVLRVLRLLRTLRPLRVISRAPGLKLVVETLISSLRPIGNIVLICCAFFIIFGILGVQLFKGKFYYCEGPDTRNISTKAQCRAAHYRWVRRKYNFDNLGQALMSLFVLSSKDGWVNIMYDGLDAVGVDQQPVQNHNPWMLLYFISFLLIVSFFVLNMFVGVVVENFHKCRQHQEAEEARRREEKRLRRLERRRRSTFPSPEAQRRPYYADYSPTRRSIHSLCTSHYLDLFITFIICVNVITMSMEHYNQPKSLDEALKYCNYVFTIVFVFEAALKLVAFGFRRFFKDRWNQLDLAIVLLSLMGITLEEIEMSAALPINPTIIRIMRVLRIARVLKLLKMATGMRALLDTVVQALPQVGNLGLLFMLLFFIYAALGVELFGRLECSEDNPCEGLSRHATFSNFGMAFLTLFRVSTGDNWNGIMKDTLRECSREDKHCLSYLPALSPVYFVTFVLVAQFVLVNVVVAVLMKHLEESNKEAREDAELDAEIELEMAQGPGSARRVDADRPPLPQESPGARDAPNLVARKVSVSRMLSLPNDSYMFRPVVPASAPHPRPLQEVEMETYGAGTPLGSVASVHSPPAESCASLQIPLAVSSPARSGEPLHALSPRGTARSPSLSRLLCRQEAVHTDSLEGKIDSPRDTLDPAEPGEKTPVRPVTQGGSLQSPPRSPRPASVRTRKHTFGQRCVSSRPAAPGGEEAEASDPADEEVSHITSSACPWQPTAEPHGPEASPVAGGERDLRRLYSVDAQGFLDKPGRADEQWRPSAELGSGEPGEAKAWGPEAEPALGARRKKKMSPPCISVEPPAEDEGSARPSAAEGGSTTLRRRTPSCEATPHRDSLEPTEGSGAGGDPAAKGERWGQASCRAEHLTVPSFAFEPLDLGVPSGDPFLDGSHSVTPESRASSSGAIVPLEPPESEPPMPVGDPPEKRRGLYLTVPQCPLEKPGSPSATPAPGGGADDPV

COc1ccc(OC)c(NC(=O)CSCc2cnn(-c3ccccc3)c2-n2cccc2)c1
EC50 [1]: 4.18 µM (active) | AC50 [2]: inconclusive | AC50 [3]: 25.1 µM (inconclusive)

CC1=NC(C)(C)Cc2cc(C)c(C)cc21
IC50 [4]: 13.2 µM (active)

Cn1c(=O)oc2cc(S(=O)(=O)NCCC(=O)N3CC=C(c4ccccc4)CC3)ccc21
AC50 [2]: inconclusive | AC50 [3]: 31.6 µM (inconclusive)

CSc1nnc(-c2sccc2OCc2ccccc2)n1C
IC50 [5]: 2.71 µM (active)

O=C(c1ccccc1)N1N=C(c2cccs2)CC1c1ccccc1O (centres undefined)
IC50 [5]: 2.72 µM (active)

COc1ccc2c(c1)CCc1c(C(=O)NCC(C)C)noc1-2
AC50 [6]: 55.1 µM (active)

Cc1ccc(-n2cc(CN3CCN(Cc4nccn4C)CC3)c(-c3ccc(F)cc3)n2)cc1
IC50 [4]: 10.1 µM (active)

O=C(NCCCN1CCOCC1)c1ccc2c(=O)n(-c3ccc(F)c(Cl)c3)c(=S)[nH]c2c1
IC50 [4]: 11.5 µM (active)

CNC(=O)c1ccc(-c2cc3onc(-c4ccccc4)c3c(=O)n2C)cc1
AC50 [6]: 44.9 µM (active)

N#Cc1c(/N=C/N2CCCC2)oc(-c2ccccc2)c1-c1ccccc1
IC50 [5]: 0.558 µM (active) | AC50 [7]: 1.67 µM (active)

CN(C)c1ncc2nc(-c3cc(F)cc(F)c3)c(=O)n(Cc3ccc(F)cc3)c2n1
AC50 [2]: inconclusive | AC50 [8]: 31.6 µM (inconclusive)

Cc1ccc(Nc2cc(C)nc(-c3ccccc3)n2)cc1
AC50 [6]: 36.7 µM (active)

CCCC(=O)Nc1cccc(NC(=O)c2ccc([N+](=O)[O-])cc2Cl)c1
IC50 [4]: 15.1 µM (active)

CCOCCCN1C(=O)CN(C2CCCCCC2)C(=O)C1c1ccc(OC)cc1 (centres undefined)
AC50 [2]: inconclusive | AC50 [9]: 25.1 µM (inconclusive)

Cc1cc(O)c2cc(Cl)ccc2n1
AC50 [2]: inconclusive

O=C(NC1CC1)c1sc2cc(Cl)ccc2c1Cl
AC50 [6]: 69.3 µM (active)

CC(C)(C)n1nnnc1C(c1cccs1)N(Cc1cccnc1)Cc1ccccc1Cl (centres undefined)
EC50 [10]: 0.684 µM (active) | EC50 [11]: 15.1 µM (active) | EC50 [12]: 59 µM (active) | IC50 [5]: 3.57 µM (active) | AC50 [13]: > 120 µM (inactive)

CCOc1ccc(N=Nc2ccc(O)c3ncccc23)cc1
EC50 [10]: 0.65 µM (active) | EC50 [14]: 1.11 µM (active) | EC50 [11]: 8.06 µM (active) | EC50 [15]: 0.19 µM (active) | EC50 [16]: > 180 µM (inactive) | EC50 [17]: > 150 µM (inconclusive) | EC50 [18]: 1.45 µM (active) | EC50 [19]: > 150 µM (inactive)

Cc1[nH]n(-c2ccccc2)c(=O)c1C(c1cccc([N+](=O)[O-])c1O)c1c(C)[nH]n(-c2ccccc2)c1=O
EC50 [12]: 0.931 µM (active) | EC50 [20]: > 50 µM (active) | AC50 [13]: 1.15 µM (active) | IC50 [21]: 31.6 µM (active)
